Where “and” joins values, the source holds several entries; their conditions need not be identical. Identical values can stand only once. Like-named read-outs stand apart in the source and are kept apart here.
System: SLI-WT parasites
Assay: Growth inhibition assay (72 h, LDH activity)
Assay type: cell-based, Plasmodium falciparum
Conditions: for Growth inhibition, (1 - av / DMSO) x 100: Fig 2B source data, per biological replicate; for sample/DMSO: START(WT); for EC50: Plasmodium falciparum; for percent growth inhibition relative to DMSO control: START(WT) (SLI-WT)
Method: Parasite growth assays with inhibitory compounds were performed as per[11] and are fully described in the Supplementary Information.
Molecular biology and transfection of P. falciparum: Selection Linked Integration […]
To introduce the PfSTART1 mutations, the second half of the coding sequence of pfstart1 (PF3D7_0104200), was recodonised without introns to the bias of Saccharomyces cerevisiae containing either WT, N309K or N330K mutations, and synthesised as gBlock fragments (Integrated DNA Technologies). The first 819 bp of the 5′ native sequence of pfstart1 was amplified from gDNA, to form the 5’ homology block (5’ HB). The 3′ recodonised gBlock fragment comprising of the last 552 bp of either the WT, N309K or N330K pfstart1 to form the ‘recodon’ block (primers listed in Table S2). The 5’ HB and recodon products were sewn together by overlapping PCR to reconstitute the full coding sequence of pfstart1. These blocks (WT/N309K/N330K) were digested with BglII/PstI, and inserted into the parasite vector p-HA-2A-Neo-glmS
1. This plasmid contains an in -frame haemagglutinin (HA) epitope for protein identification and a P2A peptide (2A) to skip continuous peptide bond synthesis of a downstream neomycin resistance gene ( NeoR).
Parasites containing the transfected DNA were selected using 2.5 nM WR99210 (Jacobus). To select for parasites in which single crossover integration had occurred into the pfstart1 locus, parasites were treated with 400 μg/mL G418 (geniticin, Sigma Aldrich) for 14 days: only parasites that have integrated the construct into their genome expressed the neomycin resistance gene together with the PfSTART1 protein.
Parasite lines were cloned using limiting dilution. These clones were then tested on Western Blot (for correct HA-tagging and protein size), and correct integration and sequence were tested by PCR analysis: PCR on the gDNA was conducted using the primers START_5’UTR.F and START_Seq.R (Table S2). […]
Growth inhibition assays. Synchronised ring-stage parasites (0.3-0.6% parasitemia, 2% haematocrit) were grown for 72 h in a serial-dilution of the compound under […]
and compound 4. Note that M-833 was first purchased from MolPort (MolPort -002-267-916) then made in-house at WEHI: the differences observed in EC50s across experiments are attributed to the different batches of M -833. For some experiments, 0, 0.25 or 2.5 mM of glucosamine (GlcN) was also added. Experiments were set up in technical duplicates or triplicates. Following a freeze -thaw cycle, lactate dehydrogenase (LDH) activity was assessed as an indicator of parasite growt h 5. 30 μL of parasite culture was incubated for 30 min in the dark with 75 μL Malstat mixture (0.1 M Tris pH 9.0, 20 g/L lactic acid, pH 7.5, 0.2% Triton-X100, 0.5 g/L acetylpyridine adenine dinucleotide (APAD, Sigma), 200 μg/mL nitroblue tetrazolium (NBT; Sigma), 1 μg/mL phenozine ethosulfate (PES; Sigma)). Absorbance was then measured at 650 nm, transformed using the formula below, plotted against the logarithm of the concentrations, and a non-linear regression (log(inhibitor) vs. response, variable slope) was calculated using GraphPad Prism to assess the half-inhibitory […]
Growth inhibition % = (1 − average(sample)− average(uRBC)) ∗ 100 […]
The DMSO samples were also used to assess growth of parasite in the presence of 0.25 and 2.5 mM GlcN (normalised by DMSO in 0 mM GlcN).
Egress, invasion & recovery assay. To measure egress, invasion and follow up recovery in the presence of different compounds, we adapted the method developed in6, using Hyp1-Nluc parasites7. These parasites episomally express the exported PEXEL protein Hyp1 (PF3D7_0113300) tagged with a NanoLuc luciferase (NLuc) and were selected with 2.5 nM WR99210 (Jacobus). Highly synchronised schizonts were obtained using ML10 (LifeArc) and sorbitol synchronisation, and Percoll-purified (the culture was gently layered over 67% Percoll (Cytiva) in RPMI, and centrifuged for 15 min at 1500 g and the schizont layer was collected and washed). […]

Cc1cc(Cl)c(S(=O)(=O)N2CCCC2)cc1OCC(=O)NC1CCCCC1 [M-833]
Growth inhibition, (1 - av / DMSO) x 100 (SLI-WT, M-833 conc 0.00152416 (unit not given)): 17.8235% and 9.909% and 33.7545% | Growth inhibition, (1 - av / DMSO) x 100 (SLI-WT, M-833 conc 0.00457247 (unit not given)): 32.5193% and 13.2196% and 48.23% | Growth inhibition, (1 - av / DMSO) x 100 (SLI-WT, M-833 conc 0.0137174 (unit not given)): 64.9814% and 33.9327% and 65.9574% | Growth inhibition, (1 - av / DMSO) x 100 (SLI-WT, M-833 conc 0.0411523 (unit not given)): 82.6478% and 70.7748% and 84.2144% | Growth inhibition, (1 - av / DMSO) x 100 (SLI-WT, M-833 conc 0.123457 (unit not given)): 87.5893% and 87.6138% and 93.5055% | Growth inhibition, (1 - av / DMSO) x 100 (SLI-WT, M-833 conc 0.37037 (unit not given)): 88.1748% and 91.0017% and 95.8283% | Growth inhibition, (1 - av / DMSO) x 100 (SLI-WT, M-833 conc 1.11111 (unit not given)): 89.8172% and 92.0512% and 95.1872% | Growth inhibition, (1 - av / DMSO) x 100 (SLI-WT, M-833 conc 3.33333 (unit not given)): 91.3453% and 92.3754% and 94.862% | Growth inhibition, (1 - av / DMSO) x 100 (SLI-WT, M-833 conc 10 (unit not given)): 91.9594% and 91.8274% and 95.2708% | sample/DMSO (M-833 0.000508053 uM, 0 mM GlcN, biological replicates 1-3): 27.927 and 21.9727 and 25 | sample/DMSO (M-833 0.000508053 uM, 0.25 mM GlcN, biological replicates 1-3): 42.2036 and 30.1606 and 32.1527 | sample/DMSO (M-833 0.000508053 uM, 2.5 mM GlcN, biological replicates 1-3): 50.9566 and 35.9886 and 36.6839 | sample/DMSO (M-833 0.00152416 uM, 0 mM GlcN, biological replicates 1-4): 49.0407 and 28.0532 and 35.8147 and 28.6219 | sample/DMSO (M-833 0.00152416 uM, 0.25 mM GlcN, biological replicates 1-4): 60.3487 and 47.5652 and 43.8309 | sample/DMSO (M-833 0.00152416 uM, 2.5 mM GlcN, biological replicates 1-4): 64.731 and 51.7963 and 44.8107 and 40.64 | sample/DMSO (M-833 0.00457247 uM, 0 mM GlcN, biological replicates 1-4): 71.0997 and 42.5489 and 51.2149 and 44.2813 | sample/DMSO (M-833 0.00457247 uM, 0.25 mM GlcN, biological replicates 1-4): 74.8396 and 65.6157 and 57.2049 | sample/DMSO (M-833 0.00457247 uM, 2.5 mM GlcN, biological replicates 1-4): 78.1904 and 72.0515 and 57.0638 and 53.24 | sample/DMSO (M-833 0.0137174 uM, 0 mM GlcN, biological replicates 1-4): 83.6593 and 61.2338 and 74.7499 and 69.6413 | sample/DMSO (M-833 0.0137174 uM, 0.25 mM GlcN, biological replicates 1-4): 88.8842 and 81.3121 and 70.4954 | sample/DMSO (M-833 0.0137174 uM, 2.5 mM GlcN, biological replicates 1-4): 87.5985 and 84.0064 and 69.7195 and 63.44 | sample/DMSO (M-833 0.0411523 uM, 0 mM GlcN, biological replicates 1-4): 94.394 and 79.7192 and 91.2101 and 80.3728 | sample/DMSO (M-833 0.0411523 uM, 0.25 mM GlcN, biological replicates 1-4): 94.2399 and 92.19 and 82.349 | sample/DMSO (M-833 0.0411523 uM, 2.5 mM GlcN, biological replicates 1-4): 91.9649 and 89.5193 and 74.7012 and 67.08 | sample/DMSO (M-833 0.123457 uM, 0 mM GlcN, biological replicates 1-4): 97.6883 and 88.7403 and 94.7713 and 86.5433 | sample/DMSO (M-833 0.123457 uM, 0.25 mM GlcN, biological replicates 1-4): 95.7043 and 95.071 and 88.6476 | sample/DMSO (M-833 0.123457 uM, 2.5 mM GlcN, biological replicates 1-4): 92.7752 and 92.3191 and 78.8024 and 71.4 | EC50 (72 h, Fig 2B, SLI-WT, 72 h, n = 3, unit only in x-axis title, read-out: EC50 (95% confidence interval)): 13.4 nM | EC50 (Fig 3C, SLI-WT, 0 mM GlcN, n = 4, unit on plot axis, read-out: EC50 M-833 (95% confidence interval)): 5.9 nM | EC50 (Fig 3C, SLI-WT, 0.25 mM GlcN, n = 4, unit on plot axis, read-out: EC50 M-833 (95% confidence interval)): 3.1 nM | EC50 (Fig 3C, SLI-WT, 2.5 mM GlcN, n = 4, unit on plot axis, read-out: EC50 M-833 (95% confidence interval)): 2.6 nM | fold more sensitive compared to the parental 3D7 parasites (SLI-WT, Fig 2B): 7 fold | fold reduction of EC50 on addition of 2.5 mM GlcN (SLI-WT, PfSTART1 knock-down): 2.3 fold | percent growth inhibition relative to DMSO control (0 mM GlcN, M-833 0.37037 uM, biological replicates 1-4): 99.0454 and 90.3879 and 95.7242 and 88.5343 | percent growth inhibition relative to DMSO control (0 mM GlcN, M-833 1.11111 uM, biological replicates 1-4): 99.2981 and 91.8212 and 96.4269 and 89.5933 | percent growth inhibition relative to DMSO control (0 mM GlcN, M-833 3.33333 uM, biological replicates 1-4): 98.5962 and 92.1167 and 96.403 and 89.8334 | percent growth inhibition relative to DMSO control (0 mM GlcN, M-833 10 uM, biological replicates 1-4): 99.0547 and 92.0133 and 96.7127 and 88.7461 | percent growth inhibition relative to DMSO control (0.25 mM GlcN, M-833 0.37037 uM, biological replicates 1-4): 96.4435 and 95.9038 and 89.675 | percent growth inhibition relative to DMSO control (0.25 mM GlcN, M-833 1.11111 uM, biological replicates 1-4): 96.5272 and 97.1616 and 91.872 | percent growth inhibition relative to DMSO control (0.25 mM GlcN, M-833 3.33333 uM, biological replicates 1-4): 96.834 and 96.2182 and 91.3374 | percent growth inhibition relative to DMSO control (0.25 mM GlcN, M-833 10 uM, biological replicates 1-4): 97.0851 and 96.6856 and 92.1644 | percent growth inhibition relative to DMSO control (2.5 mM GlcN, M-833 0.37037 uM, biological replicates 1-4): 94.0131 and 93.8677 and 81.9097 and 71.68 | percent growth inhibition relative to DMSO control (2.5 mM GlcN, M-833 1.11111 uM, biological replicates 1-4): 94.8008 and 94.5862 and 84.2496 and 73.4 | percent growth inhibition relative to DMSO control (2.5 mM GlcN, M-833 3.33333 uM, biological replicates 1-4): 94.7333 and 94.0783 and 84.1867 and 73.32 | percent growth inhibition relative to DMSO control (2.5 mM GlcN, M-833 10 uM, biological replicates 1-4): 95.2735 and 94.4252 and 87.0927 and 74.36

From article PMC11189555, “Aryl amino acetamides prevent Plasmodium falciparum ring development via targeting the lipid-transfer protein PfSTART1” (Nature Communications, 2024)
